According to ChEMBL document CHEMBL3351846, “Synthesis and SAR studies of bis-chromenone derivatives for anti-proliferative activity against human cancer cells” (Bioorg Med Chem Lett, 2014):
Where a name gives a salt, the structure may show the parent alone.

Legend:
Assay type in all cases: functional, cell-based
ACHN = assay: Anti-proliferative activity against human ACHN cells by XTT assay
[1] = Anti-proliferative activity against human HCT15 cells by XTT assay; conditions: HCT-15
MDA-MB-231 = assay: Anti-proliferative activity against human MDA-MB-231 cells by XTT assay
NCI-H23 = assay: Anti-proliferative activity against human NCI-H23 cells by XTT assay
[2] = Anti-proliferative activity against human NUGC3 cells by XTT assay; conditions: NUGC-3
[3] = Anti-proliferative activity against human PC3 cells by XTT assay; conditions: PC-3

IC50 (ACHN) [µM]	IC50 (MDA-MB-231) [µM]	IC50 (NCI-H23) [µM]	Structure (SMILES)	IC50 [1] [µM]	IC50 [2] [µM]	IC50 [3] [µM]
0.51	> 10	1.4	O=c1c(Cc2coc3ccccc3c2=O)coc2ccccc12	> 10	7.77	7.4
0.74	> 10	7.55	O=c1c(Cc2coc3cccc(O)c3c2=O)coc2ccccc12	> 10	3.27	5.95
0.34	> 10	1.93	COc1cccc2occ(Cc3coc4ccccc4c3=O)c(=O)c12	3.43	3.19	3.49
1.46	> 10	> 10	CC(C)COc1cccc2occ(Cc3coc4ccccc4c3=O)c(=O)c12	> 10	> 10	1.72
3.96	> 10	> 10	CC(C)CCOc1cccc2occ(Cc3coc4ccccc4c3=O)c(=O)c12	> 10	> 10	> 10
3.99	> 10	> 10	O=c1c(Cc2coc3cccc(OCc4ccccc4)c3c2=O)coc2ccccc12	> 10	7.22	4.83
> 10	> 10	> 10	O=c1c(/C=C/c2coc3ccccc3c2=O)coc2ccccc12	> 10	> 10	> 10
> 10	> 10	> 10	O=c1c(CCc2coc3ccccc3c2=O)coc2ccccc12	> 10	> 10	> 10
4.23	4.11	4.13	O=c1c(Cc2coc3cccc(OCC4CCCCC4)c3c2=O)coc2ccccc12	4.24	3.53	4.51
2.25	3.32	3.22	Cc1ccc2c(=O)c(Cc3coc4cccc(OCC5CCCCC5)c4c3=O)coc2c1	2.22	2.15	2.44
1.35	1.2	1.32	COc1ccc2c(=O)c(Cc3coc4cccc(OCC5CCCCC5)c4c3=O)coc2c1	1.45	1.44	1.12
> 10	> 10	> 10	O=c1c(Cc2coc3cccc(OCC4CCCCC4)c3c2=O)coc2cc(Cl)ccc12	> 10	> 10	> 10
2.1	3.22	2.15	O=c1c(Cc2coc3cccc(OCC4CCCCC4)c3c2=O)coc2cc(O)ccc12	2.11	3.22	4.25
8.2	9.11	9.49	O=C1c2c(OCC3CCCCC3)cccc2OCC1Cc1coc2ccccc2c1=O (stereo not drawn)	8.36	8.42	9.38
	0.6	0.49	COc1cccc2c1C(=O)c1c(O)c3c(c(O)c1C2=O)C[C@@](O)(C(=O)CO)C[C@@H]3O[C@H]1C[C@H](N)[C@H](O)[C@H](C)O1 [DOXORUBICIN HYDROCHLORIDE]	0.43	0.38	
